From patent US8476197B2, “Aminopropenoates as fungicides” (priority 2009, dated 2013)
Where two headings read alike, the source gives them in different places. Marks after values point to notes of the source that are not given here.

For `CCOC(=O)C(C#N)=C(NC(C)c1ccc(C)cc1)c1cn(C)nc1C(F)F` (mixture of isomers) [Compound 455], the “Log P” value (pH 2.7) was 3.51^[a].

For `CCOC(=O)C(C#N)=C(NC(C)c1ccccc1)c1cn(C)nc1C(F)F` (mixture of isomers) [Compound 456], the “Log P” value (pH 2.7) was 3.17^[a].

With `CCOC(=O)C(C#N)=C(NC(C)c1ccc(Cl)cc1)c1cn(C)nc1C(C)F` (mixture of isomers) [Compound 520] the “Log P” value (pH 2.7) was 3.64^[a].

For `CCOC(=O)C(C#N)=C(NC(C)CSC)c1ccc(C)nc1Cl` (mixture of isomers) [Compound 633], the “Log P” value (pH 7.5) was 3.09.

For `CCOC(=O)C(C#N)=C(NC(C)C(F)(F)F)c1cccnc1Cl` (mixture of isomers) [Compound 806], the “Log P” value (pH 7.5) was 2.9.

In the case of `C=CCOC(=O)C(C#N)=C(NC(C)C1CC1)c1cccnc1Cl` (mixture of isomers) [Compound 906], the “Log P” value (pH 7.5) is reported as 3.08.

With `CCOC(=O)C(C#N)=C(NC(C)C1CC1)c1cccnc1Cl` (mixture of isomers) [Compound 913] the “Log P” value (pH 7.5) was 2.9.

With `CCOC(=O)C(C#N)=C(NC(C)C1CC1)c1ccc(Cl)nc1Cl` (mixture of isomers) [Compound 914] the “Log P” value (pH 7.5) was 3.54.

With `COC(=O)C(C#N)=C(NC(C)C(C)(C)C)c1cccnc1Cl` (mixture of isomers) [Compound 916] the “Log P” value (pH 7.5) was 3.14.

For `CCOC(=O)C(C#N)=C(NC1CCCCC1O)c1cccnc1Cl` (mixture of isomers) [Compound 1064], the “Log P” value (pH 7.5) was 2.27.

For `CC(NC(=C(C#N)C(=O)OC1CCC1)c1cccnc1Cl)C1CC1` (mixture of isomers) [Compound 1245], the “Log P” value (pH 7.5) was 3.46.

For `COC(=O)C(C#N)=C(NC(C)C1CC1)c1cccnc1Cl` (mixture of isomers) [Compound 1307], the “Log P” value (pH 7.5) was 2.58.

In the case of `CCOC(=O)C(C#N)=C(NC(C)C=NOC)c1cccnc1Cl` (mixture of isomers) [Compound 1322], the “Log P” value (pH 7.5) is reported as 2.49.

In the case of `CC(C)C(C)NC(=C(C#N)C(=O)NC1CC1(C)C)c1cccnc1Cl` (mixture of isomers) [Compound 1495], the “Log P” value (pH 2.7) is reported as 3.72^[a].

In the case of `CCOC(=O)C(C#N)=C(NC(C)C(C)OC)c1cnn(C)c1Cl` (mixture of isomers) [Compound 1543], the “Log P” value (pH 2.7) is reported as 2.67^[a].

In the case of `CCOC(=O)C(C#N)=C(NC(C)C(C)CC)c1cnn(C)c1Cl` (mixture of isomers) [Compound 1544], the “Log P” value (pH 2.7) is reported as 3.6^[a].

For `CCOC(=O)C(C#N)=C(NC(C)CCCC(C)C)c1cccnc1Cl` (mixture of isomers) [Compound 1582], the “Log P” value (pH 7.5) was 4.47.

For `CCOC(=O)C(C#N)=C(NC(C)c1nc(C)c(C)s1)c1cn(C)nc1C(F)F` (racemic) [Compound 33], the “Log P” value (pH 2.7) was 2.96^[a].

In the case of `CCOC(=O)C(C#N)=C(NC(C)c1nccs1)c1cn(C)nc1C(F)F` (racemic) [Compound 34], the “Log P” value (pH 2.7) is reported as 2.4^[a].

With `CCOC(=O)C(C#N)=C(NC(C)Cc1c[nH]c2ccccc12)c1cn(C)nc1C(F)F` (racemic) [Compound 35] the “Log P” value (pH 2.7) was 3.25^[a].

With `CCOC(=O)C(C#N)=C(NC(C)c1ccccn1)c1cn(C)nc1C(F)F` (racemic) [Compound 36] the “Log P” value (pH 2.7) was 2.33^[a].

For `CCOC(=O)C(C#N)=C(NC(C)c1nc(C)c(C)s1)c1ncc(C(F)(F)F)cc1Cl` (racemic) [Compound 37], the “Log P” value (pH 2.7) was 4.04^[a].

For `CCOC(=O)C(C#N)=C(NC(C)c1nccs1)c1c(C)nn(C)c1F` (racemic) [Compound 38], the “Log P” value (pH 2.7) was 2.37^[a].

With `CCOC(=O)C(C#N)=C(NC(C)Cc1c[nH]c2ccccc12)c1ncc(C(F)(F)F)cc1Cl` (racemic) [Compound 41] the “Log P” value (pH 2.7) was 4.07^[a].

In the case of `CCOC(=O)C(C#N)=C(NC(C)c1ccccn1)c1ncc(C(F)(F)F)cc1Cl` (racemic) [Compound 43], the “Log P” value (pH 2.7) is reported as 3.44^[a].

With `CCOC(=O)C(C#N)=C(NC1CCSC1=O)c1cccnc1Cl` (racemic) [Compound 44] the “Log P” value (pH 2.3) was 2.42 and the “Log P” value (pH 7.5) was 2.23.

For `CCOC(=O)C(C#N)=C(NC(C)c1nc(C)c(C)s1)c1c(C)nn(C)c1F` (racemic) [Compound 45], the “Log P” value (pH 2.7) was 2.94^[a].

With `CCOC(=O)C(C#N)=C(NC(C)Cc1c[nH]c2ccccc12)c1c(C)nn(C)c1F` (racemic) [Compound 46] the “Log P” value (pH 2.7) was 3.07^[a].
